The values that follow come from patent US20250084095A1, “Aminopyrimidine Derivatives as Cyclin-Dependent Kinase Inhibitors” (Accutar Biotechnology Inc., priority 2023, published 2025).

By IC50 is commonly meant the midpoint of a concentration-inhibition curve. As a reminder, the GI50 is the concentration that inhibits growth by half.

In experiment [1] the test system is Phospho-Rb (Ser807/811) in MCF7 cells. The experiment is described as follows: Phospho-Rb expression inhibition in MCF7 cells quantified by in cell Western. The experiment is classed as cell-based, human. The settings on record: Homo sapiens, MCF7, 24 h, 24 hours, in cell Western, read-out: MCF7 pRb IC50. The method, boiled down: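 MCF7 cells were seeded at 20,000/well, grown overnight, then treated 24 h at 37 °C with compound dilutions (0.1% DMSO from 1000× stocks). Fixed cells were co-stained for phospho-Rb Ser807/811 and total Rb. Near-infrared dual-channel in-cell Western imaging was the read-out.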

Another experiment relates to 22RV1 cells. The experiment is described as follows: Cell growth inhibition of 22RV1 cells (CellTiter-Glo). The experiment is classed as cell-based. Particulars: Homo sapiens, 22Rv1, 120 h, 5 days, CellTiter-Glo, read-out: 22RV1 Cell Growh GI50. The essentials:
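22RV1 cells were plated in RPMI1640 with FBS (20% in one version, 10% in the other) and dosed next day at various concentrations from DMSO stocks. After 5 days at 37 °C, viability was measured by CellTiter-Glo luminescence.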
Background: ATP-based viability assays read luminescence as a measure of living cells.

Regarding `Cc1c(CN)n(C(C)C)c2cc(-c3nc(N[C@@H]4C[C@H]5CO[C@H](O5)[C@H]4O)ncc3F)ccc2c1=O` [Compound 193, 2-(aminomethyl)-7-(5-fluoro-2-(((1S,3R,4S,5R)-4-hydroxy-6,8-dioxabicyclo[3.2.1]octan-3-yl)amino)pyrimidin-4-yl)-1-isopropyl-3-methylquinolin-4(1H)-one], the IC50 in experiment [1] is 150 to 1000 nM. The GI50 in the experiment with 22RV1 cells lay in the range of 120 to 450 nM.
For `Cc1c(CN2CC(O)C2)n(C(C)C)c2cc(-c3nc(N[C@@H]4C[C@H]5CO[C@H](O5)[C@H]4O)ncc3F)ccc2c1=O` [Compound 198, 7-(5-fluoro-2-(((1S,3R,4S,5R)-4-hydroxy-6,8-dioxabicyclo[3.2.1]octan-3-yl)amino)pyrimidin-4-yl)-2-((3-hydroxyazetidin-1-yl)methyl)-1-isopropyl-3-methylquinolin-4(1H)-one], in experiment [1], the IC50 lay within 150 to 1000 nM. Further, the GI50 in the experiment with 22RV1 cells fell in the range of 450 to 3000 nM.
Turning to `CC(C)n1c(CN2[C@@H](C)COC[C@@H]2C)c(F)c(=O)c2ccc(-c3nc(N[C@@H]4C[C@H]5CO[C@H](O5)[C@H]4O)ncc3F)cc21` [Compound 200, 2-(((3S,5S)-3,5-dimethylmorpholino)methyl)-3-fluoro-7-(5-fluoro-2-(((1S,3R,4S,5R)-4-hydroxy-6,8-dioxabicyclo[3.2.1]octan-3-yl)amino)pyrimidin-4-yl)-1-isopropylquinolin-4(1H)-one], the IC50 in experiment [1] was in the range of 40 to 150 nM. The GI50 in the experiment on 22RV1 cells was in the range of 120 to 450 nM.
Consider `Cc1c(CN2CC[C@H](O)C2)n(C(C)C)c2cc(-c3nc(N[C@@H]4C[C@H]5CO[C@H](O5)[C@H]4O)ncc3F)ccc2c1=O` [Compound 207, 7-(5-fluoro-2-(((1S,3R,4S,5R)-4-hydroxy-6,8-dioxabicyclo[3.2.1]octan-3-yl)amino)pyrimidin-4-yl)-2-(((S)-3-hydroxypyrrolidin-1-yl)methyl)-1-isopropyl-3-methylquinolin-4(1H)-one], for which, in experiment [1], the IC50 lay within 40 to 150 nM. For the same molecule, the concentration for 50% growth inhibition (GI50) with 22RV1 cells was ≤ 120 nM.
As for `Cc1c(CN2CCC(F)(F)C2)n(C(C)C)c2cc(-c3nc(N[C@@H]4C[C@H]5CO[C@H](O5)[C@H]4O)ncc3F)ccc2c1=O` [Compound 208, 2-((3,3-difluoropyrrolidin-1-yl)methyl)-7-(5-fluoro-2-(((1S,3R,4S,5R)-4-hydroxy-6,8-dioxabicyclo[3.2.1]octan-3-yl)amino)pyrimidin-4-yl)-1-isopropyl-3-methylquinolin-4(1H)-one], the IC50 in experiment [1] is ≤ 40 nM. The GI50 in the experiment with 22RV1 cells was ≤ 120 nM.
For `CC(C)n1c(CN2[C@@H](C)COC[C@@H]2C)cc(=O)c2ccc(-c3nc(N[C@@H]4C[C@H]5CO[C@H](O5)[C@H]4O)ncc3F)cc21` [Compound 209, 2-(((3S,5S)-3,5-dimethylmorpholino)methyl)-7-(5-fluoro-2-(((1S,3R,4S,5R)-4-hydroxy-6,8-dioxabicyclo[3.2.1]octan-3-yl)amino)pyrimidin-4-yl)-1-isopropylquinolin-4(1H)-one] the same measures were 40 to 150 nM and 120 to 450 nM.
For `CC(C)n1c(CN2CC[C@@H](F)C2)cc(=O)c2ccc(-c3nc(N[C@@H]4C[C@H]5CO[C@H](O5)[C@H]4O)ncc3F)cc21` [Compound 210, 7-(5-fluoro-2-(((1S,3R,4S,5R)-4-hydroxy-6,8-dioxabicyclo[3.2.1]octan-3-yl)amino)pyrimidin-4-yl)-2-(((R)-3-fluoropyrrolidin-1-yl)methyl)-1-isopropylquinolin-4(1H)-one] the same measures were 150 to 1000 nM and 450 to 3000 nM.
On to `Cc1c(CN2CCOC2=O)n(C(C)C)c2cc(-c3nc(N[C@@H]4C[C@H]5CO[C@H](O5)[C@H]4O)ncc3F)ccc2c1=O` [Compound 211, 3-((7-(5-fluoro-2-(((1S,3R,4S,5R)-4-hydroxy-6,8-dioxabicyclo[3.2.1]octan-3-yl)amino)pyrimidin-4-yl)-1-isopropyl-3-methyl-4-oxo-1,4-dihydroquinolin-2-yl)methyl)oxazolidin-2-one], for which the IC50 in experiment [1] was > 1000 nM. The GI50 in the experiment with 22RV1 cells is > 3000 nM.
